According to US9315503B2, “Kinase inhibitors” (CHIESI FARMACEUTICI S.p.A., priority 2011, dated 2016):
Structures can show the parent of a compound that is named as a salt.

Experiments:
p38alpha = target: T1, p38alpha (Homo sapiens, UniProt Q16539); assay: P38Alpha enzyme inhibition assay (Alphascreen kinase activity assay); format: biochemical; settings: 100 pM p38alpha, 250 μM ATP, 2 hours pre-incubation at 25° C., read-out: p38α inhibition (IC50 values)
T1 construct: purchased Invitrogen PV3304
In short: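 AlphaScreen read-out: after an EDTA stop, an anti-phospho-ATF2 antibody with Protein A acceptor and donor beads measured substrate phosphorylation. Compounds sat 2 h at 25°C with 100 pM p38α and 0.3 µg/ml ATF-2 fusion protein (pH 7.5, 1% DMSO) before 250 µM ATP was added for 1 h. IC50 from dose-response.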

[1] = test system: LPS-stimulated TNFα release from PBMCs; assay: LPS-stimulated PBMC TNFα release assay; format: cell-based; settings: inhibition of TNFα release, human PBMCs, LPS 10 ng/ml, 18 h, ELISA, read-out: p38α inhibition (IC50 values)
In short: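 TNFα in supernatants measured by ELISA after 18 h LPS (10 ng/ml) challenge of human PBMCs given 1 h compound pretreatment at 37 °C in medium with 1% FBS. Percent inhibition versus control release fitted to dose-response curves for IC50; at least three independent runs.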

T1 sequence (Q16539 whole entry): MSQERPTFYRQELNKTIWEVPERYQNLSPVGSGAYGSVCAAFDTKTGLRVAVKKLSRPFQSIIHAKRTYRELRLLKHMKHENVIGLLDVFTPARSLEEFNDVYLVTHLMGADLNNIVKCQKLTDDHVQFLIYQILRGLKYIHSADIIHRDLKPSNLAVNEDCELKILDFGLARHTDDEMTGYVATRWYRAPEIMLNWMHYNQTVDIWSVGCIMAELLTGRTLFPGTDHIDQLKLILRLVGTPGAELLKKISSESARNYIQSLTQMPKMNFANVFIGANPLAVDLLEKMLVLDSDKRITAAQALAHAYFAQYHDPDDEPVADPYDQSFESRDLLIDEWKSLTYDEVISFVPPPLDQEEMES

Compound	IC50 (p38alpha)	IC50 [1]
Cc1ccc(-n2nc(C(C)(C)C)cc2NC(=O)N[C@H]2CC[C@@H](Oc3ccc4nnc([C@@H]5CC(C)(C)CN5C)n4c3)c3ccccc32)cc1 [Example 87, 1-(5-tert-Butyl-2-p-tolyl-2H-pyrazol-3-yl)-3-{(1S,4R)-4-[3-((S)-1,4,4-trimethyl-pyrrolidin-2-yl)-[1,2,4]triazolo[4,3a]pyridin-6-yloxy]-1,2,3,4-tetrahydro-naphthalen-1-yl}-urea]	< 10 nM	< 10 nM
Cc1ccc(-n2nc(C(C)(C)C)cc2NC(=O)N[C@H]2CC[C@@H](Oc3ccc4nnc([C@H]5CCCN(C)C5)n4c3)c3ccccc32)cc1 [Example 88, 1-(5-tert-Butyl-2-p-tolyl-2H-pyrazol-3-yl)-3-{(1S,4R)-4-[3-((S)-1-methyl-piperidin-3-yl)-[1,2,4]triazolo[4,3-a]pyridin-6-yloxy]-1,2,3,4-tetrahydro-naphthalen-1-yl}-urea]	< 10 nM	< 10 nM
Cc1ccc(-n2nc(C(C)(C)C)cc2NC(=O)N[C@H]2CC[C@@H](Oc3ccc4nnc([C@@H]5CCCN(C)C5)n4c3)c3ccccc32)cc1 [Example 89, 1-(5-tert-Butyl-2-p-tolyl-2H-pyrazol-3-yl)-3-{(1S,4R)-4-[3-((R)-1-methyl-piperidin-3-yl)-[1,2,4]triazolo[4,3-a]pyridin-6-yloxy]-1,2,3,4-tetrahydro-naphthalen-1-yl}-urea]	< 10 nM	< 10 nM
Cc1ccc(-n2nc(C(C)(C)C)cc2NC(=O)N[C@H]2CC[C@@H](Oc3ccc4nnc([C@@H]5CCN(C)C5)n4c3)c3ccccc32)cc1 [Example 90, 1-(5-tert-Butyl-2-p-tolyl-2H-pyrazol-3-yl)-3-{(1S,4R)-4-[3-((R)-1-methyl-pyrrolidin-3-yl)-[1,2,4]triazolo[4,3-a]pyridin-6-yloxy]-1,2,3,4-tetrahydro-naphthalen-1-yl}-urea]	< 10 nM	< 10 nM
Cc1ccc(-n2nc(C(C)(C)C)cc2NC(=O)N[C@H]2CC[C@@H](Oc3ccc4nnc(N5CC[C@H](CO)C5)n4c3)c3ccccc32)cc1 [Example 92, 1-(5-tert-Butyl-2-p-tolyl-2H-pyrazol-3-yl)-3-{(1S,4R)-4-[3-((S)-3-hydroxymethyl-pyrrolidin-1-yl)-[1,2,4]triazolo[4,3-a]pyridin-6-yloxy]-1,2,3,4-tetrahydro-naphthalen-1-yl}-urea]	< 10 nM	< 10 nM
Cc1ccc(-n2nc(C(C)(C)C)cc2NC(=O)N[C@H]2CC[C@@H](Oc3ccc4nnc(N5CC[C@@H](CO)C5)n4c3)c3ccccc32)cc1 [Example 93, 1-(5-tert-Butyl-2-p-tolyl-2H-pyrazol-3-yl)-3-{(1S,4R)-4-[3-((R)-3-hydroxymethyl-pyrrolidin-1-yl)-[1,2,4]triazolo[4,3-a]pyridin-6-yloxy]-1,2,3,4-tetrahydro-naphthalen-1-yl}-urea]	< 10 nM	< 10 nM
Cc1ccc(-n2nc(C(C)(C)C)cc2NC(=O)N[C@H]2CC[C@@H](Oc3ccc4nnc(N5CCN(CCO)CC5)n4c3)c3ccccc32)cc1 [Example 94, 1-(5-tert-Butyl-2-p-tolyl-2H-pyrazol-3-yl)-3-((1S,4R)-4-{3-[4-(2-hydroxy-ethyl)-piperazin-1-yl]-[1,2,4]triazolo[4,3-a]pyridin-6-yloxy}-1,2,3,4-tetrahydro-naphthalen-1-yl)-urea]	< 10 nM	10 to 100 nM
C[C@H]1CCCCN1c1nnc2ccc(O[C@@H]3CC[C@H](NC(=O)Nc4cc(C(C)(C)C)nn4-c4cccc(OCCN(C)C)c4)c4ccccc43)cn12 [Example 95]	< 10 nM	< 10 nM
C[C@@H]1CCC[C@H](C)N1c1nnc2ccc(O[C@@H]3CC[C@H](NC(=O)Nc4cc(C(C)(C)C)nn4-c4cccc(OCCN(C)C)c4)c4ccccc43)cn12 [Example 96, 1-{5-tert-Butyl-2-[3-(2-dimethylamino-ethoxy)-phenyl]-2H-pyrazol-3-yl}-3-{(1S,4R)-4-[3-(cis-2,6-dimethyl-piperidin-1-yl)-[1,2,4]triazolo[4,3-a]pyridin-6-yloxy]-1,2,3,4-tetrahydro-naphthalen-1-yl}-urea formate salt]	< 10 nM	< 10 nM
C[C@H]1CCCCN1c1nnc2ccc(O[C@@H]3CC[C@H](NC(=O)Nc4cc(C(C)(C)C)nn4-c4cccc(CN5CCOCC5)c4)c4ccccc43)cn12 [Example 97, 1-[5-tert-Butyl-2-(3-morpholin-4-ylmethyl-phenyl)-2H-pyrazol-3-yl]-3-{(1S,4R)-4-[3-((S)-2-methyl-piperidin-1-yl)-[1,2,4]triazolo[4,3-a]pyridin-6-yloxy]-1,2,3,4-tetrahydro-naphthalen-1-yl}-urea formate salt]	< 10 nM	< 10 nM
C[C@H]1CCCCN1c1nnc2ccc(O[C@@H]3CC[C@H](NC(=O)Nc4cc(C(C)(C)C)nn4-c4cccc(CN5CCN(C)CC5)c4)c4ccccc43)cn12 [Example 98, 1-{5-tert-Butyl-2-[3-(4-methyl-piperazin-1-ylmethyl)-phenyl]-2H-pyrazol-3-yl}-3-{(1S,4R)-4-[3-((S)-2-methyl-piperidin-1-yl)-[1,2,4]triazolo[4,3-a]pyridin-6-yloxy]-1,2,3,4-tetrahydro-naphthalen-1-yl}-urea formate salt]	< 10 nM	< 10 nM
Cc1ccc(-n2nc(C(C)(C)C)cc2NC(=O)N[C@H]2CC[C@@H](Oc3ccc4nnc(C5(N(C)C)CCCC5)n4c3)c3ccccc32)cc1 [Example 99, 1-(5-tert-Butyl-2-p-tolyl-2H-pyrazol-3-yl)-3-{(1S,4R)-4-[3-(1-dimethylamino-cyclopentyl)-[1,2,4]triazolo[4,3-a]pyridin-6-yloxy]-1,2,3,4-tetrahydro-naphthalen-1-yl}-urea]	< 10 nM	< 10 nM
Cc1ccc(-n2nc(C(C)(C)C)cc2NC(=O)N[C@H]2CC[C@@H](Oc3ccc4nnc(N5[C@H](C)CCC[C@@H]5C)n4c3)c3ccccc32)cc1 [Example 100, 1-(5-tert-Butyl-2-p-tolyl-2H-pyrazol-3-yl)-3-{(1S,4R)-4-[3-((2S,6R)-2,6-dimethyl-piperidin-1-yl)-[1,2,4]triazolo[4,3-a]pyridin-6-yloxy]-1,2,3,4-tetrahydro-naphthalen-1-yl}-urea]	< 10 nM	< 10 nM
Cc1ccc(-n2nc(C(C)(C)C)cc2NC(=O)N[C@H]2CC[C@@H](Oc3ccc4nnc(N)n4c3)c3ccccc32)cc1 [Example 101, 1-[(1S,4R)-4-(3-Amino-[1,2,4]triazolo[4,3-a]pyridin-6-yloxy)-1,2,3,4-tetrahydro-naphthalen-1-yl]-3-(5-tert-butyl-2-p-tolyl-2H-pyrazol-3-yl)-urea]	< 10 nM	< 10 nM
Cc1ccc(-n2nc(C(C)(C)C)cc2NC(=O)N[C@H]2CC[C@@H](Oc3ccc4nnc(N5CCCCC5)n4c3)c3ccccc32)cn1 [Example 102, 1-[5-tert-Butyl-2-(6-methyl-pyridin-3-yl)-2H-pyrazol-3-yl]-3-[(1S,4R)-4-(3-piperidin-1-yl-[1,2,4]triazolo[4,3-a]pyridin-6-yloxy)-1,2,3,4-tetrahydro-naphthalen-1-yl]-urea]	< 10 nM	< 10 nM
CC(C)N(c1nnc2ccc(O[C@@H]3CC[C@H](NC(=O)Nc4cc(C(C)(C)C)nn4-c4cccc(OCCN(C)C)c4)c4ccccc43)cn12)C(C)C [Example 103, 1-{5-tert-Butyl-2-[3-(2-dimethylamino-ethoxy)-phenyl]-2H-pyrazol-3-yl}-3-[(1S,4R)-4-(3-diisopropylamino-[1,2,4]triazolo[4,3-a]pyridin-6-yloxy)-1,2,3,4-tetrahydro-naphthalen-1-yl]-urea]	< 10 nM	< 10 nM
COc1c(NC(=O)N[C@H]2CC[C@@H](Oc3ccc4nnc(N5CCCCC5)n4c3)c3ccccc32)cc(C(C)(C)C)cc1NS(C)(=O)=O [Example 104, N-(5-tert-Butyl-2-methoxy-3-{3-[(1S,4R)-4-(3-piperidin-1-yl-[1,2,4]triazolo[4,3-a]pyridin-6-yloxy)-1,2,3,4-tetrahydro-naphthalen-1-yl]-ureido}-phenyl)-methanesulfonamide]	< 10 nM	< 10 nM
Cc1ccc(-n2nc(C(C)(C)C)cc2NC(=O)N[C@H]2CC[C@@H](Oc3cc(C)c4nnc([C@@H]5CCCN5C)n4c3)c3ccccc32)cc1 [Example 105, 1-(5-tert-Butyl-2-p-tolyl-2H-pyrazol-3-yl)-3-{(1S,4R)-4-[8-methyl-3-((S)-1-methyl-pyrrolidin-2-yl)-[1,2,4]triazolo[4,3-a]pyridin-6-yloxy]-1,2,3,4-tetrahydro-naphthalen-1-yl}-urea]	< 10 nM	< 10 nM
CN1CCN(Cc2ccc(-n3nc(C(C)(C)C)cc3NC(=O)N[C@H]3CC[C@@H](Oc4ccc5nnc(N6CCCCC6)n5c4)c4ccccc43)cc2)CC1 [Example 106, 1-{5-tert-Butyl-2-[4-(4-methyl-piperazin-1-ylmethyl)-phenyl]-2H-pyrazol-3-yl}-3-[(1S,4R)-4-(3-piperidin-1-yl-[1,2,4]triazolo[4,3-a]pyridin-6-yloxy)-1,2,3,4-tetrahydro-naphthalen-1-yl]-urea]	< 10 nM	< 10 nM
Cn1cc(-n2nc(C(C)(C)C)cc2NC(=O)N[C@H]2CC[C@@H](Oc3ccc4nnc(N5CCCCC5)n4c3)c3ccccc32)cn1 [Example 107, 1-(3-tert-Butyl-1′-methyl-1′H-[1,4′]bipyrazolyl-5-yl)-3-[(1S,4R)-4-(3-piperidin-1-yl-[1,2,4]triazolo[4,3-a]pyridin-6-yloxy)-1,2,3,4-tetrahydro-naphthalen-1-yl]-urea]	< 10 nM	< 10 nM
